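The concentration for 50% growth inhibition is given as GI50. TGI: total growth inhibition.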
Experiments:
Test in all cases: NCI tumour cell line growth inhibition, 384-well format
[1] = test system: A498 renal
[2] = test system: HCT-116 colon
[3] = test system: MCF7 breast
[4] = test system: 786-0 renal
[5] = test system: RXF 393 renal
[6] = test system: SF-539 CNS
[7] = test system: K-562 leukemia
[8] = test system: NCI-H23 lung
[9] = test system: HOP-62 NSCLC
[10] = test system: HCC-2998 colon
[11] = test system: NCI-H460 NSCLC
[12] = test system: SNB-75 CNS
[13] = test system: HT29 colon
[14] = test system: PC-3 prostate
[15] = test system: KM12 colon
[16] = test system: COLO 205 colon
[17] = test system: MOLT-4 leukemia
[18] = test system: ACHN renal
[19] = test system: CCRF-CEM leukemia
[20] = test system: M14 melanoma
[21] = test system: SK-MEL-5 melanoma
[22] = test system: OVCAR-8 ovarian
[23] = test system: HS 578T breast
[24] = test system: LOX IMVI melanoma
[25] = test system: SW-620 colon
[26] = test system: NCI-H522 lung
[27] = test system: SNB-19 CNS

Q: How did the GI50 [1] turn out when `CCOC(=O)c1cc(/C=C/c2ccc(Cl)cc2Cl)on1` was run?
A: 1850 nM

Q: And the TGI [1]?
A: 3.33 µM

Q: And the GI50 [2]?
A: 740 nM

Q: And the TGI [2]?
A: 2040 nM

Q: What about the GI50 [3] of the same compound?
A: 662 nM

Q: And the TGI [3]?
A: 2810 nM

Q: What about the GI50 [4] of the same compound?
A: 1840 nM

Q: What about the TGI [4] of the same compound?
A: 3.35 µM

Q: What about the GI50 [5] of the same compound?
A: 1990 nM

Q: And the TGI [5]?
A: 3.46 µM

Q: And the GI50 [6]?
A: 945 nM

Q: What about the TGI [6] of the same compound?
A: 2190 nM

Q: And the GI50 [7]?
A: 10.7 µM

Q: And the TGI [7]?
A: 30.8 µM

Q: What about the GI50 [8] of the same compound?
A: 2340 nM

Q: What about the TGI [8] of the same compound?
A: 5.29 µM

Q: And the GI50 [9]?
A: 469 nM

Q: What about the TGI [9] of the same compound?
A: 2830 nM

Q: What about the GI50 [10] of the same compound?
A: 1960 nM

Q: And the TGI [10]?
A: 3.97 µM

Q: What about the GI50 [11] of the same compound?
A: 1220 nM

Q: What about the TGI [11] of the same compound?
A: 2590 nM

Q: What about the GI50 [12] of the same compound?
A: 3.2 µM

Q: What about the TGI [12] of the same compound?
A: 6.12 µM

Q: And the GI50 [13]?
A: 1920 nM

Q: What about the TGI [13] of the same compound?
A: 4.22 µM

Q: What about the GI50 [14] of the same compound?
A: 1970 nM

Q: What about the TGI [14] of the same compound?
A: 4.05 µM

Q: What about the GI50 [15] of the same compound?
A: 932 nM

Q: And the TGI [15]?
A: 3.93 µM

Q: And the GI50 [16]?
A: 2720 nM

Q: What about the TGI [16] of the same compound?
A: 6.54 µM

Q: What about the GI50 [17] of the same compound?
A: 1030 nM

Q: And the TGI [17]?
A: 2210 nM

Q: And the GI50 [18]?
A: 1860 nM

Q: What about the TGI [18] of the same compound?
A: 3.39 µM

Q: And the GI50 [19]?
A: 1130 nM

Q: And the TGI [19]?
A: 2370 nM

Q: What about the GI50 [20] of the same compound?
A: 3.27 µM

Q: And the TGI [20]?
A: 8.82 µM

Q: What about the GI50 [21] of the same compound?
A: 1770 nM

Q: What about the TGI [21] of the same compound?
A: 3.53 µM

Q: And the GI50 [22]?
A: 649 nM

Q: What about the TGI [22] of the same compound?
A: 11 µM

Q: What about the GI50 [23] of the same compound?
A: 1970 nM

Q: What about the TGI [23] of the same compound?
A: 3.54 µM

Q: And the GI50 [24]?
A: 1910 nM

Q: What about the TGI [24] of the same compound?
A: 3.63 µM

Q: And the GI50 [25]?
A: 1360 nM

Q: And the TGI [25]?
A: 3.02 µM

Q: And the GI50 [26]?
A: 2020 nM

Q: What about the TGI [26] of the same compound?
A: 3.51 µM

Q: What about the GI50 [27] of the same compound?
A: 3.1 µM

Q: What about the TGI [27] of the same compound?
A: 8.17 µM

— PubChem BioAssay (NCI)
